{"source": "ChEMBL document CHEMBL5576081", "about": "“Exploring the structural activity relationship of the Osimertinib: A covalent inhibitor of double mutant EGFRL858R/T790M tyrosine kinase for the treatment of Non-Small Cell Lung Cancer (NSCLC)” (Bioorg Med Chem, 2024)", "key": {"[1]": {"test": "Antiproliferative activity against mouse Ba/F3 EGFR-T790M/L858R cells incubated for 3 days by Cell Titer-Glo assay", "format": "functional, cell-based", "details": "72 h"}, "[2]": {"test": "Antiproliferative activity against mouse KC-0116 cells", "format": "toxicity, cell-based"}, "[3]": {"test_system": "PC-9", "test": "Cytotoxicity against human PC-9 cells assessed as reduction in cell viability incubated for 48 hrs by CCK-8 assay", "format": "functional, cell-based", "details": "PC-9, 48 h"}, "[4]": {"test_system": "NCI-H292", "test": "Cytotoxicity against human NCI-H292 cells assessed as reduction in cell viability incubated for 48 hrs by CCK-8 assay", "format": "functional, cell-based", "details": "NCI-H292, 48 h"}, "[5]": {"test_system": "NCI-H1975", "test": "Cytotoxicity against human NCI-H1975 cells assessed as reduction in cell viability incubated for 48 hrs by CCK-8 assay", "format": "functional, cell-based", "details": "NCI-H1975, 48 h"}, "[6]": {"target": "T1, Epidermal growth factor receptor (Homo sapiens, UniProt P00533, L858R/T790M)", "T1 sequence (P00533 25-1210 T790M/L858R limits assumed)": "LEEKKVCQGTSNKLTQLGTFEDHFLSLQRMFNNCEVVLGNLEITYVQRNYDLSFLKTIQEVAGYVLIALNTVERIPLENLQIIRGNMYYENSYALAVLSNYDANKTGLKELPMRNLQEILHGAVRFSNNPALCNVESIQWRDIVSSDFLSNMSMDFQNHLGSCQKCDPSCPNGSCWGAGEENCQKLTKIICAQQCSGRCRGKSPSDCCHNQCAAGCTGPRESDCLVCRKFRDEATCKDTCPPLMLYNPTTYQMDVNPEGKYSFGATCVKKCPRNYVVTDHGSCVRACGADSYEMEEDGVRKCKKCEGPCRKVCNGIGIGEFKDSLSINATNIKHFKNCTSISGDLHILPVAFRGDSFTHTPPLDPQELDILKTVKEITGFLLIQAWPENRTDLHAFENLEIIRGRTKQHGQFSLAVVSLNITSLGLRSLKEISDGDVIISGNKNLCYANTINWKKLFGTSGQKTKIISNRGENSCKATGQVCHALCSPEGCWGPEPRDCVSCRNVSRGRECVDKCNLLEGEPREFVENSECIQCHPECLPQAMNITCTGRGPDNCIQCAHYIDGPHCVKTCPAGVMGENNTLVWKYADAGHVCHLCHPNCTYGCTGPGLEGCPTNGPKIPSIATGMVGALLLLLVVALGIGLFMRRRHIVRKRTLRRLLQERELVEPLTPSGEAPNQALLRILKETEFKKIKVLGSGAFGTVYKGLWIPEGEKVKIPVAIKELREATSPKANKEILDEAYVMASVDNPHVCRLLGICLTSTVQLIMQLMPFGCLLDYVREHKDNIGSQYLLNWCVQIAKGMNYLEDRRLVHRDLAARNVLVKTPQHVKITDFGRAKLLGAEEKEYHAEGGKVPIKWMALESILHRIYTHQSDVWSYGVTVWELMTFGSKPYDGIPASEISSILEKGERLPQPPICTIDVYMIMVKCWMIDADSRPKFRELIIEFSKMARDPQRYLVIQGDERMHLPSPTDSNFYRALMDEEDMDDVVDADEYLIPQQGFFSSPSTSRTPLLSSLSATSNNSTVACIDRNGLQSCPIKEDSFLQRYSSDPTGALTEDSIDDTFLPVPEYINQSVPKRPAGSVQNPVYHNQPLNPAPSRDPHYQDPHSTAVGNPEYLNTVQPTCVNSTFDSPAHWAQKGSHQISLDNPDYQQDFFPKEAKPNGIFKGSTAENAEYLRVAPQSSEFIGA", "test": "Inhibition of EGFR L858R/T790M (unknown origin)"}, "[7]": {"test_system": "NCI-H1975", "test": "Antiproliferative activity against human NCI-H1975 cells", "format": "functional, cell-based"}, "[8]": {"target": "Epidermal growth factor receptor (Homo sapiens, UniProt P00533)", "sequence (P00533 whole entry)": "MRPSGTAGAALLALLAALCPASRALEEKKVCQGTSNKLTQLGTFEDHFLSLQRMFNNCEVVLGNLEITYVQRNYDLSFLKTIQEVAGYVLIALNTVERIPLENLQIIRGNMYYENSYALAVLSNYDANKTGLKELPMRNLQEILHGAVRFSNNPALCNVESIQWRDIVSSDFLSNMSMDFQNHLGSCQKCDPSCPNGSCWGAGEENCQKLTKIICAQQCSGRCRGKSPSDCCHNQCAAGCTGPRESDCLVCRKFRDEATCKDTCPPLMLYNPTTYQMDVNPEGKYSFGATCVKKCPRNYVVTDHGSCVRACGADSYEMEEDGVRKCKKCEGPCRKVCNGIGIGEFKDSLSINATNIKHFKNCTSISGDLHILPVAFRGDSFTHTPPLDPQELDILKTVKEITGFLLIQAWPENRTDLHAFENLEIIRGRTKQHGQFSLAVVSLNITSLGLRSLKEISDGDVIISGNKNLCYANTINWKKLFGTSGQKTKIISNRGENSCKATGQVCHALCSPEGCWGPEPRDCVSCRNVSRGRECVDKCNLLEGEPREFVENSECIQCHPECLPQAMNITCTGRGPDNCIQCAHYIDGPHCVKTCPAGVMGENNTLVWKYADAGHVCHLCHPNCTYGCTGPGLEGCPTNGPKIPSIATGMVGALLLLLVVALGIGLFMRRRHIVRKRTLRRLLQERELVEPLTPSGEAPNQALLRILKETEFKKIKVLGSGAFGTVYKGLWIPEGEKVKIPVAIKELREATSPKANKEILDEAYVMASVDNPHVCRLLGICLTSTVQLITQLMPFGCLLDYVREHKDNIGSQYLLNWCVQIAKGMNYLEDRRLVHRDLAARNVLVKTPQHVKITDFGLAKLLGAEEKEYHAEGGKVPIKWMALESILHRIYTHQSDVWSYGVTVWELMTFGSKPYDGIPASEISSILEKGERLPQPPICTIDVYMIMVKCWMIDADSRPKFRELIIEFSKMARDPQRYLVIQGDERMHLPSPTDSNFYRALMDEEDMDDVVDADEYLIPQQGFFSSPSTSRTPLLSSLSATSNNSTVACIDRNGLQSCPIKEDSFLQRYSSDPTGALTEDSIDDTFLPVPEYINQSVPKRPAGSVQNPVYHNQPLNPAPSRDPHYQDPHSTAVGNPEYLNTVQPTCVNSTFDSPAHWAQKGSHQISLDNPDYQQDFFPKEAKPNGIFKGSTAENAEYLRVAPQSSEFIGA", "test": "Inhibition of wild-type EGFR (unknown origin) using TK as substrate incubated for 120 mins in presence of ATP by HTRF assay"}, "[9]": {"target": "T1, Epidermal growth factor receptor", "test": "Inhibition of EGFR L858R/T790M mutant (unknown origin)"}, "[10]": {"test_system": "A-431", "test": "Antiproliferative activity against human A-431 cells assessed as reduction in cell viability incubated for 48 hrs by MTT assay", "format": "functional, cell-based", "details": "A-431, 48 h"}, "[11]": {"test_system": "NCI-H1975", "test": "Antiproliferative activity against human NCI-H1975 cells assessed as reduction in cell viability incubated for 72 hrs by Cell-titer glo assay", "format": "functional, cell-based", "details": "NCI-H1975, 72 h"}, "[12]": {"test_system": "PC-9", "test": "Antiproliferative activity against human PC-9 cells harboring EGFR del19 mutant assessed as cell growth inhibition incubated for 72 hrs by CellTiter Glo assay", "format": "functional, cell-based", "details": "PC-9, 72 h"}}, "data": [{"smiles": "CN(C)C1CCN(c2ccc(Nc3nccc(-c4cn(C)c5ccccc45)n3)cc2NS(C)(=O)=O)CC1", "values": [{"measurement": "IC50", "setting": "[1]", "result": 170, "unit": "nM"}, {"measurement": "IC50", "setting": "[2]", "result": 160, "unit": "nM"}]}, {"smiles": "C=CC(=O)Nc1cc(Nc2nccc(-c3csc4ccccc34)n2)c(OC)cc1N1CCN(C(C)C)CC1", "values": [{"measurement": "IC50", "setting": "[3]", "result": 1300, "unit": "nM"}, {"measurement": "IC50", "setting": "[4]", "result": "> 10000", "unit": "nM"}, {"measurement": "IC50", "setting": "[5]", "result": 130, "unit": "nM"}]}, {"smiles": "COc1cc(N(C)CCN(C)C)c(NC(=O)CN)cc1Nc1nccc(-c2cn(C)c3ccccc23)n1", "values": [{"measurement": "IC50", "setting": "[1]", "result": 2720, "unit": "nM"}, {"measurement": "IC50", "setting": "[2]", "result": 1320, "unit": "nM"}]}, {"smiles": "Cn1cc(-c2ccnc(Nc3cccc(NC(=O)CCN)c3)n2)c2ccccc21", "values": [{"measurement": "IC50", "setting": "[1]", "result": 4770, "unit": "nM"}, {"measurement": "IC50", "setting": "[2]", "result": 4990, "unit": "nM"}]}, {"smiles": "Cn1cc(-c2ccnc(Nc3ccc(N4CCC(N5CCOCC5)CC4)cc3)n2)c2ccccc21", "values": [{"measurement": "IC50", "setting": "[1]", "result": 5740, "unit": "nM"}, {"measurement": "IC50", "setting": "[2]", "result": 1710, "unit": "nM"}]}, {"smiles": "COCC(=O)Nc1cc(Nc2nccc(-c3cn(C)c4ccccc34)n2)c(OC)cc1N1CCC(N(C)C)CC1", "values": [{"measurement": "IC50", "setting": "[1]", "result": 450, "unit": "nM"}, {"measurement": "IC50", "setting": "[2]", "result": 460, "unit": "nM"}]}, {"smiles": "C=CC(=O)Nc1cc(Nc2ncc(F)c(-c3csc4ccccc34)n2)c(OC)cc1N(C)CCNC(C)C", "values": [{"measurement": "IC50", "setting": "[3]", "result": 30, "unit": "nM"}, {"measurement": "IC50", "setting": "[4]", "result": 3960, "unit": "nM"}, {"measurement": "IC50", "setting": "[5]", "result": 13, "unit": "nM"}]}, {"smiles": "C=CC(=O)Nc1cc(Nc2nccc(-c3cn(C)c4ccccc34)n2)c(OC)cc1N(C)CCN(C)Cc1ccc(Br)cc1", "values": [{"measurement": "IC50", "setting": "[6]", "result": 8.1, "unit": "nM"}, {"measurement": "IC50", "setting": "[7]", "result": 20, "unit": "nM"}]}, {"smiles": "CN(C)C1CCN(c2ccc(Nc3nccc(-c4cn(C)c5ccccc45)n3)cc2NS(=O)(=O)C2CC2)CC1", "values": [{"measurement": "IC50", "setting": "[1]", "result": 250, "unit": "nM"}, {"measurement": "IC50", "setting": "[2]", "result": 240, "unit": "nM"}]}, {"smiles": "C=CC(=O)Nc1cc(Nc2nccc(-c3csc4ccccc34)n2)c(OC)cc1N(C)CCN(C)C", "values": [{"measurement": "IC50", "setting": "[3]", "result": 4, "unit": "nM"}, {"measurement": "IC50", "setting": "[4]", "result": 4400, "unit": "nM"}, {"measurement": "IC50", "setting": "[5]", "result": 2, "unit": "nM"}, {"measurement": "IC50", "setting": "[8]", "result": 4.11, "unit": "nM"}, {"measurement": "IC50", "setting": "[9]", "result": 0.26, "unit": "nM"}]}, {"smiles": "C=CC(=O)Nc1cc(Nc2nccc(-c3csc4ccccc34)n2)c(OC)cc1N1CCN(CC)CC1", "values": [{"measurement": "IC50", "setting": "[3]", "result": 800, "unit": "nM"}, {"measurement": "IC50", "setting": "[4]", "result": "> 10000", "unit": "nM"}, {"measurement": "IC50", "setting": "[5]", "result": 90, "unit": "nM"}]}, {"smiles": "CN(C)C1CCN(c2ccc(Nc3nccc(-c4cn(C)c5ccccc45)n3)cc2)CC1", "values": [{"measurement": "IC50", "setting": "[1]", "result": 450, "unit": "nM"}, {"measurement": "IC50", "setting": "[2]", "result": 400, "unit": "nM"}]}, {"smiles": "CN1CCN(C2CCN(c3ccc(Nc4nccc(-c5cn(C)c6ccccc56)n4)cc3NS(=O)(=O)C3CC3)CC2)CC1", "values": [{"measurement": "IC50", "setting": "[1]", "result": 200, "unit": "nM"}, {"measurement": "IC50", "setting": "[2]", "result": 170, "unit": "nM"}]}, {"smiles": "COc1cc(N(C)CCN(C)C)c(NC(=O)CNC(=O)OC(C)(C)C)cc1Nc1nccc(-c2cn(C)c3ccccc23)n1", "values": [{"measurement": "IC50", "setting": "[1]", "result": 1280, "unit": "nM"}, {"measurement": "IC50", "setting": "[2]", "result": 1290, "unit": "nM"}]}, {"smiles": "C=CC(=O)Nc1cc(Nc2ncc(Cl)c(-c3cn(C4CC4)c4ccccc34)n2)c(OC)cc1N(C)CCN(C)C", "values": [{"measurement": "IC50", "setting": "[10]", "result": 59, "unit": "nM"}, {"measurement": "IC50", "setting": "[11]", "result": 8.15, "unit": "nM"}]}, {"smiles": "C=CC(=O)Nc1cc(Nc2nccc(-c3csc4ccccc34)n2)c(OC)cc1N(C)CCCN(C)C", "values": [{"measurement": "IC50", "setting": "[3]", "result": 300, "unit": "nM"}, {"measurement": "IC50", "setting": "[4]", "result": 4000, "unit": "nM"}, {"measurement": "IC50", "setting": "[5]", "result": 170, "unit": "nM"}]}, {"smiles": "C=CC(=O)Nc1cc(Nc2nccc(-c3cn(C)c4ccccc34)n2)c(OC)cc1N(C)CCN(C)Cc1ccccc1", "values": [{"measurement": "IC50", "setting": "[7]", "result": 4, "unit": "nM"}]}, {"smiles": "C=CC(=O)Nc1cc(Nc2nccc(-c3csc4ccccc34)n2)c(OC)cc1N1CCN(C)CC1", "values": [{"measurement": "IC50", "setting": "[3]", "result": 1900, "unit": "nM"}, {"measurement": "IC50", "setting": "[4]", "result": "> 10000", "unit": "nM"}, {"measurement": "IC50", "setting": "[5]", "result": 500, "unit": "nM"}]}, {"smiles": "Cn1cc(-c2ccnc(Nc3ccc(N4CCOCC4)cc3)n2)c2ccccc21", "values": [{"measurement": "IC50", "setting": "[1]", "result": "> 10000", "unit": "nM"}, {"measurement": "IC50", "setting": "[2]", "result": 7000, "unit": "nM"}]}, {"smiles": "C=CC(=O)Nc1cc(Nc2nccc(-c3cn(C)c4ccccc34)n2)c(OC)cc1N(C)CCN(C)C(=O)c1ccc(Br)cc1", "values": [{"measurement": "IC50", "setting": "[6]", "result": 12.5, "unit": "nM"}, {"measurement": "IC50", "setting": "[7]", "result": 30, "unit": "nM"}]}, {"smiles": "C=CCCN(C)CCN(C)c1cc(OC)c(Nc2nccc(-c3cn(C)c4ccccc34)n2)cc1NC(=O)C=C", "values": [{"measurement": "IC50", "setting": "[6]", "result": 2, "unit": "nM"}, {"measurement": "IC50", "setting": "[7]", "result": 2, "unit": "nM"}]}, {"smiles": "Cn1cc(-c2ccnc(Nc3ccc(N4CCCCC4)cc3)n2)c2ccccc21", "values": [{"measurement": "IC50", "setting": "[1]", "result": "> 10000", "unit": "nM"}, {"measurement": "IC50", "setting": "[2]", "result": 10000, "unit": "nM"}]}, {"smiles": "C=CC(=O)Nc1cc(Nc2nccc(-c3cn(C)c4ccccc34)n2)c(OC)cc1N(C)CCN(C)CC(=O)OC", "values": [{"measurement": "IC50", "setting": "[6]", "result": 5.7, "unit": "nM"}, {"measurement": "IC50", "setting": "[7]", "result": 8, "unit": "nM"}]}, {"smiles": "COc1cc(N2CCC(N3CCN(C)CC3)CC2)ccc1Nc1ncc(Cl)c(Nc2ccccc2P(C)(C)=O)n1", "note": "[BRIGATINIB]", "values": [{"measurement": "IC50", "setting": "[1]", "result": 450, "unit": "nM"}, {"measurement": "IC50", "setting": "[2]", "result": 350, "unit": "nM"}]}, {"smiles": "C=CC(=O)Nc1cc(Nc2nccc(-c3cn(C)c4ccccc34)n2)c(OC)cc1N(C)CCN(C)C", "note": "[OSIMERTINIB]", "values": [{"measurement": "IC50", "setting": "[10]", "result": "[…]"}, {"measurement": "IC50", "setting": "[4]", "result": 2000, "unit": "nM"}, {"measurement": "IC50", "setting": "[5]", "result": "[…]"}, {"measurement": "IC50", "setting": "[12]", "result": "[…]"}]}]}
